Paper PMC6395926, “Mass Balance and Drug Interaction Potential of Intravenous Eravacycline Administered to Healthy Subjects” (Antimicrobial Agents and Chemotherapy, 2019)

Key:
[1] = Drug interaction study with rifampin (CYP3A4 inducer): plasma PK of i.v. eravacycline and metabolites; assay type: in vivo; settings: human, intravenous, day 17, eravacycline plus rifampin, read-out: AUC0–t (distribution, as worded in the text)
[2] = Mass balance study: PK of total radioactivity in whole blood and plasma; assay type: in vivo, human; settings: for Cmax, total radioactivity: geometric mean (%CV), n = 5
Source text: (§1) (ii) Study design. This was a single-center, open-label study of a single i.v. dose of [^14C]eravacycline to assess the mass balance recovery and PK of eravacycline. The primary objectives were to determine mass balance recovery, determine routes and rates of excretion, provide metabolite profiling and structural identification, and assess the PK of radioactivity in plasma and whole blood. Subjects were screened for inclusion in the study, including a detailed medical history, physical examination, and laboratory evaluations, in the 28 days before dosing. Eligible subjects were admitted to the clinical study unit at approximately 21:00 on the evening prior to study drug administration (day −1) and remained on site until 240 h postdose for collection of urine, feces, and blood samples. After an overnight fast, each subject received 60 mg [^14C]eravacycline containing not more than 3.8 MBq (105 μCi) ^14C as a single i.v. infusion over 60 min.
(iv) Determination of radioactivity. […] Plasma and whole-blood concentrations of total radioactivity were determined using an analytical method at Quotient Bioresearch (Rushden, Northamptonshire, UK). The lower limit of quantification (LLOQ) for total radioactivity was 11 to 13 ng equivalents (equiv)/ml in plasma and 41 to 46 ng equiv/g in whole blood.
(vi) Study assessments. PK parameters were determined for total radioactivity in plasma and whole blood. Eravacycline, TP-498, and TP-6208 concentrations in plasma were quantified using a validated assay with internal standards. […]
(viii) Study analysis. Descriptive statistics (mean, median, standard deviation [SD], percent coefficient of variation [%CV], minimum, maximum, number, geometric mean, and geometric %CV) were calculated for all concentration data. Pharmacokinetic parameters were calculated using Phoenix WinNonlin v6.3 (Certera USA, Inc.).

[3] = Mass balance study: excretion of radioactivity in urine and feces after i.v. [14C]eravacycline; assay type: in vivo, human; settings: 60 mg [14C]eravacycline i.v.
Source text: as §1, with “Eligible subjects were admitted to the clinical study unit at approximately 21:00 on the evening prior to study drug administration (day −1) and remained on site until 240 h postdose for collection of urine, feces, and blood samples.” left out
(v) Excretion of radioactivity. Mass balance was determined from the incremental amount and cumulative amount excreted in urine, feces, and urine and feces combined. Amount excreted and amount excreted expressed as a percentage of administered dose were determined for urine, feces, and total samples.

[4] = set-up: species or system human; settings: in vivo
Protocol: (iii) Study assessments. Blood samples for PK analysis of eravacycline and its metabolites, TP-498, TP-6208, and TP-034, were collected predose and 1, 2, 4, 6, 8, 12, 24, 36, and 48 h after the start of the i.v. infusion on day 1 and day 10 (itraconazole) or day 1 and day 17 (rifampin). Safety assessments included AEs, clinical laboratory safety tests (hematology, serum chemistry, electrolytes, coagulation, urinalysis, and lipid profile), vital signs, physical examinations, and 12-lead ECG.

[5] = Mass balance study: safety/tolerability; assay type: in vivo, human
Protocol: Safety was assessed from adverse events (AEs), physical examinations, laboratory safety tests (hematology, coagulation, clinical chemistry, and urinalysis), vital signs, ECGs, and body weight.

Structure (SMILES): CN(C)[C@@H]1C(O)=C(C(N)=O)C(=O)[C@@]2(O)C(O)=C3C(=O)c4c(O)c(NC(=O)CN5CCCC5)cc(F)c4C[C@H]3C[C@@H]12 [eravacycline]
- AUC(0-t) [1]: 3.09 µg·h/mL
- Cmax, total radioactivity ([2]; plasma): 893 (18.0) ng equiv/ml
- time postdose total radioactivity remained quantifiable ([2]; plasma, majority of subjects): up to 241 h
- Cmax, total radioactivity ([2]; whole blood): 911 (14.5) ng equiv/ml
- Renal excretion, share of the dose [3]: approximately 34%
- total radioactivity recovered in the feces [3]: 47.8%
- total radioactive dose recovered in the urine and feces ([3]; 288-h collection period): 82.8%
- share of the dose recovered within the first 72 h ([3]; urine and feces): Approximately half
- subjects who experienced an AE ([4]; human, iv): 25.0%
- serious AEs or discontinuations for AEs related to study drug [4]: No serious AEs
- serious or severe AEs [5]: No serious or severe AEs
- number of subjects who experienced drug-related AEs ([5]; 5 male subjects): 3
- subjects who experienced at least 1 adverse effect (AE) ([5]; 5 male subjects, single i.v. dose): 80%
